“And” between values parts separate entries of the source, which are not always exact repeats. Equal entries are not always repeated.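 Cells were grown in 96-well plates and exposed to each compound for 48 hours at five concentrations; endpoints were interpolated linearly between bracketing concentrations, or set to the highest concentration if not reached. GI50 = concentration required for 50% inhibition of growth. TGI: concentration producing complete growth inhibition.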
How the values were obtained:
Assay in all cases: NCI-60 cell line screen, 48 h
[1] = system: A549 NSCLC
[2] = system: DU-145 prostate
[3] = system: EKVX NSCLC
[4] = system: HS 578T breast
[5] = system: OVCAR-5 ovarian
[6] = system: SF-268 CNS
[7] = system: SK-MEL-28 melanoma
[8] = system: SN12C renal
[9] = system: SR leukemia
[10] = system: T-47D breast

## Nc1c(S(=O)(=O)O)cc(S(=O)(=O)O)c2ccc(N=Nc3ccccc3)c(O)c12
[1]
  TGI: > 100 µM
[2]
  TGI: > 100 µM
[3]
  TGI: > 100 µM
[4]
  TGI: > 100 µM
[5]
  TGI: > 100 µM
[6]
  TGI: > 100 µM
[7]
  TGI: > 100 µM
[8]
  TGI: > 100 µM
[9]
  TGI: > 100 µM
[10]
  TGI: > 100 µM

## Cc1cn(CC(=S)NCCc2c[nH]c3ccccc23)c(=O)[nH]c1=O
[1]
  TGI: > 100 µM
[2]
  TGI: > 100 µM
[3]
  TGI: > 100 µM
[4]
  TGI: > 100 µM
[5]
  TGI: > 100 µM
[6]
  TGI: > 100 µM
[7]
  TGI: > 100 µM
[8]
  TGI: > 100 µM
[9]
  TGI: > 100 µM
[10]
  TGI: > 100 µM

## CC1CC(C)(O)C2C3(C)CCCC2(COC3=O)C12CCC1(CCOC1=O)O2 (stereo not drawn)
[1]
  TGI: > 250 µM
[3]
  TGI: > 250 µM
[5]
  TGI: > 250 µM
[6]
  TGI: > 250 µM
[7]
  TGI: > 250 µM
[8]
  TGI: > 250 µM

## CC(=O)NC1C(OCc2ccccc2)OC(CO)C(O)C1OCC(=O)NC(C(=O)NC(CCC(=O)NCCCCCC(=O)Nc1ccc2c(c1)CN1C(=O)c3ccccc3C1=N2)C(N)=O)C(C)C (stereo not drawn)
[1]
  TGI: > 100 µM
[2]
  TGI: > 100 µM
[3]
  TGI: > 100 µM
[4]
  TGI: 51 µM
[5]
  TGI: > 100 µM
[6]
  TGI: 41.8 µM
[7]
  TGI: 39 µM
[8]
  TGI: > 100 µM
[9]
  TGI: > 100 µM
[10]
  TGI: 68 µM

## Cc1ccc(C(=O)NC2C(=O)NC(C(C)C)C(=O)N3CCCC3C(=O)N(C)CC(=O)N(C)C(C(C)C)C(=O)OC2C)c2c1Oc1c(c(C(=O)NC3C(=O)NC(C(C)C)C(=O)N4CCCC4C(=O)N(C)CC(=O)N(C)C(C(C)C)C(=O)OC3C)c3nc(-c4ccccc4)c(=O)oc3c1C)N2 (stereo not drawn)
[1]
  TGI: > 100 µM
[3]
  TGI: 0.0944 µM and 0.0316 µM
[4]
  TGI: 0.00548 µM
[5]
  TGI: 0.00918 µM
[7]
  TGI: 0.0139 µM
[8]
  TGI: 0.0442 µM and 0.312 µM
[10]
  TGI: 0.168 µM

## c1ccc(-c2cc3nc4ccccc4nc3cc(-c3ccccc3)[nH][nH]2)cc1
[1]
  TGI: > 100 µM
[2]
  TGI: > 100 µM
[3]
  TGI: > 100 µM
[4]
  TGI: > 100 µM
[5]
  TGI: > 100 µM
[6]
  TGI: > 100 µM
[7]
  TGI: > 100 µM
[8]
  TGI: > 100 µM
[9]
  TGI: > 100 µM
[10]
  TGI: > 100 µM

## C=C1N(C)c2ccc(S(=O)(=O)c3ccc4c(c3)C(C)(C)C(=C)N4C)cc2C1(C)C
[1]
  TGI: > 100 µM
[2]
  TGI: > 100 µM
[3]
  TGI: > 100 µM
[4]
  TGI: 89.2 µM
[5]
  TGI: > 100 µM
[6]
  TGI: > 100 µM
[7]
  TGI: > 100 µM
[8]
  TGI: > 100 µM
[10]
  TGI: > 100 µM

## COC(=O)[C@]12CC[C@H]3CN(S(=O)(=O)c4ccc(C)cc4)[C@H]([C@H]31)[C@H](c1ccco1)N2S(=O)(=O)c1ccc(C)cc1
[1]
  TGI: > 100 µM
[2]
  TGI: > 100 µM
[3]
  TGI: > 100 µM
[4]
  TGI: > 100 µM
[5]
  TGI: > 100 µM
[6]
  TGI: > 100 µM
[7]
  TGI: > 100 µM
[8]
  TGI: > 100 µM
[9]
  TGI: > 100 µM
[10]
  TGI: 49.5 µM

## C[C@@]12CC[C@@H](O)C[C@@H]1CC[C@H]1[C@H]2CC[C@@]2(C)[C@H](c3ccc(=O)oc3)CC[C@@]12O
[1]
  GI50: < 0.01 µM
[2]
  GI50: < 0.01 µM
  TGI: 0.0168 µM
[3]
  GI50: < 0.01 µM
  TGI: 0.0104 µM
[4]
  GI50: < 0.01 µM
  TGI: 0.0351 µM
[5]
  GI50: 0.0132 µM
  TGI: 0.0426 µM
[6]
  GI50: < 0.01 µM
  TGI: 0.0344 µM
[7]
  GI50: < 0.0141 µM
  TGI: 0.119 µM
[8]
  GI50: < 0.01 µM
  TGI: 0.0272 µM
[10]
  GI50: < 0.01 µM
  TGI: 0.0577 µM

## C/C=C\C1OC1(C)c1cc(=O)c2c(C)cc3c(c2o1)C(=O)c1c(O)c(C2CC(C)(N(C)C)C(OC(C)=O)C(C)O2)cc(C2CC(N(C)C)C(O)C(C)O2)c1C3=O (stereo not drawn)
[1]
  TGI: 0.482 µM
[2]
  TGI: 0.0912 µM
[3]
  TGI: 0.0224 µM
[4]
  TGI: 0.0223 µM
[5]
  TGI: 0.488 µM
[6]
  TGI: 0.0721 µM
[8]
  TGI: 0.0134 µM
[10]
  TGI: 0.0324 µM

## CCn1c2ccccc2c2ccc(C3C4C(=O)N(c5cccc6ccccc56)C(=O)C4ON3C(C(N)=O)c3ccccc3)cc21 (stereo not drawn)
[1]
  TGI: > 25 µM
[2]
  TGI: > 25 µM
[3]
  TGI: > 25 µM
[4]
  TGI: > 25 µM
[5]
  TGI: > 25 µM
[6]
  TGI: > 25 µM
[7]
  TGI: > 25 µM
[8]
  TGI: > 25 µM
[9]
  TGI: > 25 µM
[10]
  TGI: > 25 µM

## CCCCCCC(=O)OC[n+]1ccc(-c2c(COC(=O)NC(C)C)c(COC(=O)NC(C)C)c3n2CCC3)cc1
[1]
  TGI: > 100 µM
[2]
  TGI: > 100 µM
[3]
  TGI: > 100 µM
[4]
  TGI: > 100 µM
[5]
  TGI: > 100 µM
[6]
  TGI: > 100 µM
[7]
  TGI: > 100 µM
[8]
  TGI: > 100 µM
[9]
  TGI: 50.9 µM
[10]
  TGI: > 100 µM

## C/C(=C\[Si](C)(C)c1ccco1)C(C)(O)[C@H](C)O (stereo partly drawn)
[1]
  TGI: > 100 µM
[2]
  TGI: > 100 µM
[3]
  TGI: > 100 µM
[4]
  TGI: > 100 µM
[5]
  TGI: > 100 µM
[6]
  TGI: > 100 µM
[7]
  TGI: > 100 µM
[8]
  TGI: > 100 µM
[9]
  TGI: > 100 µM
[10]
  TGI: 54.2 µM

## CC(C)CC(N)C(=O)NC(CNC(CCC(N)=O)C(=O)NC(CC(C)C)C(=O)NC(CC(C)C)C(=O)O)Cc1ccc2ccccc2c1 (stereo not drawn)
[1]
  TGI: > 10 µM
[2]
  TGI: > 10 µM
[3]
  TGI: > 10 µM
[4]
  TGI: > 10 µM
[5]
  TGI: > 10 µM
[6]
  TGI: > 10 µM
[7]
  TGI: > 10 µM
[8]
  TGI: > 10 µM
[9]
  TGI: > 10 µM

## CCCCCCCCCCCCCCCCCCN(C)CC(COC)OP(=O)([O-])OCC[N+](C)(C)C (stereo not drawn)
[1]
  TGI: 7.69 µM
[2]
  TGI: 5.13 µM
[3]
  TGI: 28.1 µM
[4]
  TGI: 17.8 µM
[5]
  TGI: 5.95 µM
[6]
  TGI: 4.17 µM
[7]
  TGI: 31.2 µM
[8]
  TGI: 14.6 µM
[9]
  TGI: 8.55 µM
[10]
  TGI: 32.7 µM

## C=C(C)[C@@H]1CC[C@]2(C(=O)O)CC[C@]3(C)[C@H](CC[C@@H]4[C@@]5(C)C/C(=C/c6ccco6)C(=O)C(C)(C)[C@@H]5CC[C@]43C)[C@@H]12
[1]
  GI50: 2.12 µM
  TGI: > 100 µM
[2]
  GI50: 3.07 µM
  TGI: 12.2 µM
[3]
  GI50: 2.73 µM
  TGI: > 100 µM
[4]
  GI50: 6.66 µM
  TGI: > 100 µM
[6]
  GI50: 3.63 µM
  TGI: > 100 µM
[10]
  GI50: 3.2 µM
  TGI: 33.3 µM

Source: PubChem BioAssay (NCI)
